What all share (assay type): cell-based
One assay concerns the target T1, human TLR8 (Homo sapiens, UniProt Q9NR97).
T1 construct: host or cells: HEK-Blue cells
T1 sequence (Q9NR97 27-1041): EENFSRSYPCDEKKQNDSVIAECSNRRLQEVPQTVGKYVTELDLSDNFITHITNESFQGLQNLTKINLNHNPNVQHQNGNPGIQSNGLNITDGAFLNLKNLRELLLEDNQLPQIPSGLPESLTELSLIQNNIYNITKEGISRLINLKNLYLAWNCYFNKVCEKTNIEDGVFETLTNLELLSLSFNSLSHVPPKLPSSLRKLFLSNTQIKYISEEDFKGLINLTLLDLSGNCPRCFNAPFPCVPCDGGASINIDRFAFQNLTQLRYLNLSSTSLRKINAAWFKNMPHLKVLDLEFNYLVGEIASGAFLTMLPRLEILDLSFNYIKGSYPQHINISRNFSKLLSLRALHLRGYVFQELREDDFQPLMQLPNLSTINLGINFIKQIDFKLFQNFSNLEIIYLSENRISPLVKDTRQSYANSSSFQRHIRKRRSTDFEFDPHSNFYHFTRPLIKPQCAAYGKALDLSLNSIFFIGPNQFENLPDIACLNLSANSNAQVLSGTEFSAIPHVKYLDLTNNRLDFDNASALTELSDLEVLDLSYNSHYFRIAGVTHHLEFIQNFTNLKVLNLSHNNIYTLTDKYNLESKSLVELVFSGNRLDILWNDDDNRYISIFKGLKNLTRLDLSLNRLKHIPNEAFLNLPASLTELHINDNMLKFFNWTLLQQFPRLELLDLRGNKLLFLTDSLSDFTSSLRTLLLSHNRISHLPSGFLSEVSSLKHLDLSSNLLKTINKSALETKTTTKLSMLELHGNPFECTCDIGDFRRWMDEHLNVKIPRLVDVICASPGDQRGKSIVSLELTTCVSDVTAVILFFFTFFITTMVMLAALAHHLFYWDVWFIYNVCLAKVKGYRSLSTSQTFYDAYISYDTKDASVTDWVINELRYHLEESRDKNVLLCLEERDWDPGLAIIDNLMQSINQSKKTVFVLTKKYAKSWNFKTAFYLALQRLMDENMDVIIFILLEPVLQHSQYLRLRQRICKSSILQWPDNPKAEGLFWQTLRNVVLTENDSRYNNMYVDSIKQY
The assay is described as follows: TLR8 inhibition reporter assay (HEK-Blue SEAP). The note with it: HEK-Blue cells overexpressing human TLR8, stimulated with R848 15.9 μM, 22 hour incubation. Here is the method:
(§1) TLR7/8/9 Inhibition Reporter Assays
(§2) HEK-Blue™-cells (Invivogen) overexpressing human TLR7, TLR8 or TLR9 receptors were used for screening inhibitors of these receptors using an inducible SEAP (secreted embryonic alkaline phosphatase) reporter gene under the control of the IFN-β minimal promoter fused to five NF-κB and AP-1-binding sites. Briefly, cells are seeded into Greiner 384 well plates (15000 cells per well for TLR7, 20.000 for TLR8 and 25,000 for TLR9) and then treated with test compounds in DMSO to yield a final dose response concentration range of 0.05 nM-50 μM. After a 30 minute compound pre-treatment at room temperature, the cells are then stimulated with a TLR7 ligand (gardiquimod at a final concentration of 7.5 μM), TLR8 ligand (R848 at a final concentration of 15.9 μM) or TLR9 ligand (ODN2006 at a final concentration of 5 nM) to activate NF-κB and AP-1 which induce the production of SEAP. After a 22 hour incubation at 37° C., 5% CO2, SEAP levels are determined with the addition of HEK-Blue™ Detection reagent (Invivogen), a cell culture medium that allows for detection of SEAP, according to manufacturer's specifications. The percent inhibition is determined as the % reduction in the HEK-Blue signal present in wells treated with agonist plus DMSO alone compared to wells treated with a known inhibitor.
For orientation: A reporter such as luciferase makes a cellular process visible.

Another assay addresses T2, human TLR9 (Homo sapiens, UniProt Q9NR96).
T2 construct: host or cells: HEK-Blue cells
T2 sequence (Q9NR96 26-1032): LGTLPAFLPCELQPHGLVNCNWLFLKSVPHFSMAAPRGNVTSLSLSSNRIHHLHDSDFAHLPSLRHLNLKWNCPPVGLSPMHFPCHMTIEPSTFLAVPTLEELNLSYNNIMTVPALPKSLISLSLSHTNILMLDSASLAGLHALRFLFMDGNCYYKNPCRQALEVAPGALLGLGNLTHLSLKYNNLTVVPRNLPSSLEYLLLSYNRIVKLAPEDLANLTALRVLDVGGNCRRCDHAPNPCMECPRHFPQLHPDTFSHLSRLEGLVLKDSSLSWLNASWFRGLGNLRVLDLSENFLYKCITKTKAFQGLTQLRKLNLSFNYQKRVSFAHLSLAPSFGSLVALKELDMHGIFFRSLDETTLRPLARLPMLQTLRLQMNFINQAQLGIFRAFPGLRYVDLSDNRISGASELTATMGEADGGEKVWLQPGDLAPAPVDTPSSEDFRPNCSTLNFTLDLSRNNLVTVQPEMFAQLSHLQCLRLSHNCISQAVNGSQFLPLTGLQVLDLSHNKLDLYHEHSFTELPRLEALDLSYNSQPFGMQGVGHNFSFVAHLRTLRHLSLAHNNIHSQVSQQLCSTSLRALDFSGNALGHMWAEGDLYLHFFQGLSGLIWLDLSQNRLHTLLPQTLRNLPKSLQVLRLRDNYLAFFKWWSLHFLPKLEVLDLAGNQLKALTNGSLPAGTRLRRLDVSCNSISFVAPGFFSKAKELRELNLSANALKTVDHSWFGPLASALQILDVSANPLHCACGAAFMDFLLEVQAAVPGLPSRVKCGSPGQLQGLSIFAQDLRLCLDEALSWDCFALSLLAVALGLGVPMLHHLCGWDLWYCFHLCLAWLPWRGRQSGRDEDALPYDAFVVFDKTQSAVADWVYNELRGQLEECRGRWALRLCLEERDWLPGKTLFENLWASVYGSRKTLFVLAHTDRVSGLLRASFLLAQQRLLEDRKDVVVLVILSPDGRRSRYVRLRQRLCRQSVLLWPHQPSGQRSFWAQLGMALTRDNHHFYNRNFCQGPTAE
Kind of assay: TLR9 inhibition reporter assay (HEK-Blue SEAP). As to conditions: HEK-Blue cells overexpressing human TLR9, stimulated with ODN2006 5 nM, 22 hour incubation. The protocol: as §1, §2

The target in the next assay is T3, human TLR7 (Homo sapiens, UniProt Q9NYK1).
T3 construct: host or cells: HEK-Blue cells
T3 sequence (Q9NYK1 27-1049): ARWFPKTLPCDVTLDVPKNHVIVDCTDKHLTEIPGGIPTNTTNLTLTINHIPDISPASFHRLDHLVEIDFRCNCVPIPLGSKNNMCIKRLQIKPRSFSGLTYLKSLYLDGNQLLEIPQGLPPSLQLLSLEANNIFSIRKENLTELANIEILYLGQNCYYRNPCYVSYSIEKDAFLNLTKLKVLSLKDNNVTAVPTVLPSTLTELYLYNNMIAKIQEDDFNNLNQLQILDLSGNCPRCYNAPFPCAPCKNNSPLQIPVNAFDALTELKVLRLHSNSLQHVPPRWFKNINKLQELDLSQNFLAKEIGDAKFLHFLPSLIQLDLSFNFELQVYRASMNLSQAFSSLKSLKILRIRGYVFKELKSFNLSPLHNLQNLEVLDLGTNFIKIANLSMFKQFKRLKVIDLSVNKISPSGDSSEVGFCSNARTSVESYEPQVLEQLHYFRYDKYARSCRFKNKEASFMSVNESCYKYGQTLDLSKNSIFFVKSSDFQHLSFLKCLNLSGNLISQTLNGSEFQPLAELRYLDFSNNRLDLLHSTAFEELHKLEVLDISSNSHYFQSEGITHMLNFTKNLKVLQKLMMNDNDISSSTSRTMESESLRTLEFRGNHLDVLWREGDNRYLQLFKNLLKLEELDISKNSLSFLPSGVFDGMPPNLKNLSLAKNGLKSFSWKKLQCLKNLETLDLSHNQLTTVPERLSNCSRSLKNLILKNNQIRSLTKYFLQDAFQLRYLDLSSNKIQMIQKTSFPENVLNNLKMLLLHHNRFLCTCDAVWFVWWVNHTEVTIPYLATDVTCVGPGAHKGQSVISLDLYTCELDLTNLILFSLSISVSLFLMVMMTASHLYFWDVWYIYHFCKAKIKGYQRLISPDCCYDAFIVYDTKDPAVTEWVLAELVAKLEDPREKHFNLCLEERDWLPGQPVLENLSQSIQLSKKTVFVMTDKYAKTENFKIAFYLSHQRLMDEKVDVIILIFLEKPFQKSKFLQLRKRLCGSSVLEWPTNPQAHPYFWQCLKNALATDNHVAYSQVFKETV
The assay is described as follows: TLR7 inhibition reporter assay (HEK-Blue SEAP). The note with it: HEK-Blue cells overexpressing human TLR7, stimulated with gardiquimod 7.5 μM, 22 hour incubation. The protocol: as §1, §2

As a reminder, the IC50 is the concentration at which inhibition is half-maximal. A high value points to weaker potency in that assay. Turning to `Cc1cc(-c2[nH]c3ccc(O[C@H]4CCCNC4)cc3c2C(C)C)cn2ncnc12` [Example 9, (S)-6-(3-isopropyl-5-(piperidin-3-yloxy)-1H-indol-2-yl)-8-methyl-[1,2,4]triazolo[1,5-a]pyridine], the IC50 at human TLR8 is 10.6 nM; on human TLR9, 2270 nM; at human TLR7, 0.8 nM.

For `Cc1cc(-c2[nH]c3ccc(OC4CCNCC4)cc3c2C(C)C)cn2ncnc12` [Example 10, 6-(3-isopropyl-5-(piperidin-4-yloxy)-1H-indol-2-yl)-8-methyl-[1,2,4]triazolo[1,5-a] pyridine], the results for the IC50 against human TLR8, on human TLR9 and at human TLR7 were 1.6 nM, 653 nM and 0.6 nM, respectively.

As to `Cc1cc(-c2[nH]c3ccc(OC4CCNCC4)cc3c2C(C)C)cn(C)c1=O` [Example 11, 5-(3-isopropyl-5-(piperidin-4-yloxy)-1H-indol-2-yl)-1,3-dimethylpyridin-2(1H)-one], the 50% inhibitory concentration (IC50) came to 2.1 nM at human TLR8, 1920 nM against human TLR9 and 2.8 nM against human TLR7.

As for `Cc1cc(-c2[nH]c3ccc(OCC4CCNCC4)cc3c2C(C)C)cn2ncnc12` [Example 12, 6-(3-isopropyl-5-(piperidin-4-ylmethoxy)-1H-indol-2-yl)-8-methyl-[1,2,4] triazolo[1,5-a]pyridine], the IC50 against human TLR8 amounted to 3 nM; at human TLR9, 1100 nM; against human TLR7, 0.3 nM.

Regarding `Cc1cc(-c2[nH]c3ccc(OC4CCN(CC(C)(C)O)CC4)cc3c2C(C)C)cc(C)n1` [Example 21, 1-(4-((2-(2,6-dimethylpyridin-4-yl)-3-isopropyl-1H-indol-5-yl)oxy)piperidin-1-yl)-2-methylpropan-2-ol], the half-maximal inhibitory concentration (IC50) on human TLR8 turned out to be 1.1 nM; against human TLR9, 518 nM; at human TLR7 it was 3.6 nM.

In the case of `Cc1cc(-c2[nH]c3ccc(OC4CCN(CC(C)(C)O)CC4)cc3c2C(C)C)cn2ncnc12` [Example 22, 1-(4-((3-isopropyl-2-(8-methyl-[1,2,4]triazolo[1,5-a]pyridin-6-yl)-1H-indol-5-yl)oxy)piperidin-1-yl)-2-methylpropan-2-ol], the IC50 against human TLR8 was found to be 9.2 nM; against human TLR9 it was 4410 nM; at human TLR7 it was 6.3 nM.

For `Cc1cc(-c2[nH]c3ccc(OCC4CCCN(CC(C)(C)O)C4)cc3c2C(C)C)cc(C)n1` (stereo not drawn) [Example 23, 1-(3-(((2-(2,6-dimethylpyridin-4-yl)-3-isopropyl-1H-indol-5-yl)oxy)methyl)piperidin-1-yl)-2-methylpropan-2-ol], the IC50 against human TLR8 was found to be 4.4 nM; against human TLR9 it was 557 nM; at human TLR7, 9.6 nM.

Consider `Cc1cc(-c2[nH]c3ccc(OCC4CCN(CC(C)(C)O)CC4)cc3c2C(C)C)cc(C)n1` [Example 24, 1-(4-(((2-(2,6-dimethylpyridin-4-yl)-3-isopropyl-1H-indol-5-yl)oxy)methyl)piperidin-1-yl)-2-methylpropan-2-ol], for which the IC50 worked out at 3 nM against human TLR8, 300 nM against human TLR9 and 4.3 nM against human TLR7.

For `Cc1cc(-c2[nH]c3ccc(OCC4CCN(CC(C)(C)O)CC4)cc3c2C(C)C)cn(C)c1=O` [Example 25, 5-(5-((1-(2-hydroxy-2-methylpropyl)piperidin-4-yl)methoxy)-3-isopropyl-1H-indol-2-yl)-1,3-dimethylpyridin-2(1H)-one], the IC50 is 14 nM against human TLR8, 11500 nM against human TLR9 and 115 nM against human TLR7.

With `Cc1cc(-c2[nH]c3ccc(OCC4CN(CC(C)(C)O)C4)cc3c2C(C)C)cn2ncnc12` [Example 26, 1-(3-(((3-isopropyl-2-(8-methyl-[1,2,4]triazolo[1,5-a]pyridin-6-yl)-1H-indol-5-yl)oxy)methyl)azetidin-1-yl)-2-methylpropan-2-ol], the results for the IC50 on human TLR8, on human TLR9 and at human TLR7 were 3.5 nM, 3160 nM and 1.1 nM, respectively.

Take `Cc1cc(-c2[nH]c3ccc(OCC4CCN(CC(C)(C)O)CC4)cc3c2C(C)C)cn2ncnc12` [Example 27, 1-(4-(((3-isopropyl-2-(8-methyl-[1,2,4]triazolo[1,5-a]pyridin-6-yl)-1H-indol-5-yl)oxy)methyl)piperidin-1-yl)-2-methylpropan-2-ol]: the results for the IC50 against human TLR8, against human TLR9 and against human TLR7 were 1.7 nM, 1750 nM and 0.5 nM, respectively.

Source of the values: patent US12030878B2 (BRISTOL-MYERS SQUIBB COMPANY, priority 2017, dated 2024).
